The subject of data set [1] is Topo II. Also noted: method as in PMID 35870412. Conditions: read-out: IC50 Topo II enzyme inhibition; cited from earlier work.
In data set [2] the target is T1, DNA topoisomerase I (Homo sapiens, UniProt P11387).
T1 construct: purchased TopoGen TG1018–2
T1 sequence (P11387 1-765): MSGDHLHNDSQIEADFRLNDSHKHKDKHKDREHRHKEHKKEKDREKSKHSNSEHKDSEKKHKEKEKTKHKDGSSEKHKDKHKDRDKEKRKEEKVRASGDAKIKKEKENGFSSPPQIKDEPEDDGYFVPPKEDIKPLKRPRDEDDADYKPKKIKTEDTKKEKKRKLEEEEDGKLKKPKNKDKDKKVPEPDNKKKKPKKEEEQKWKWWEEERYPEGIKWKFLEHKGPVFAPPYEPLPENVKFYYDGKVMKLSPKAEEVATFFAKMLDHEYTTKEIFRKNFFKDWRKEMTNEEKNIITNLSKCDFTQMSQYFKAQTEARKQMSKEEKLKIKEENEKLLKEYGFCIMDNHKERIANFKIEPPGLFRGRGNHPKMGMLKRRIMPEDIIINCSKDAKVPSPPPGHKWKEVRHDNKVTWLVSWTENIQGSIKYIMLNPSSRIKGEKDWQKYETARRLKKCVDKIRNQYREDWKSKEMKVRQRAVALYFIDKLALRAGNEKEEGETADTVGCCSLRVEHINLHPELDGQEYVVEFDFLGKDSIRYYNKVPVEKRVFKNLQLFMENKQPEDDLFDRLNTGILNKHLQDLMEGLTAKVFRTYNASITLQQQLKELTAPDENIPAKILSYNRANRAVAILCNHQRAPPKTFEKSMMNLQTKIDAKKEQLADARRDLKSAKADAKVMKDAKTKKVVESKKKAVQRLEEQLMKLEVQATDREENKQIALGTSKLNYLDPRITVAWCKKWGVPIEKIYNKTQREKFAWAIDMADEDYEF
The data set is described as follows: DNA topoisomerase I assay (TopoGen kit, relaxation of supercoiled plasmid DNA, agarose gel). Type of data set: biochemical. The following applies: supercoiled plasmid DNA pHOT 1, 30 min at 37 °C. As for the experimental part: Topogen’s Topoisomerase I Drug Screening Kit was used to investigate the topoisomerase I effects of the compounds. With this kit, it is determined whether the compounds that inhibit Topo I activity act as catalytic inhibitors or topoisomerase poisons. Topoisomerase I inhibition activities of compounds 4b, 4h, Hoechst 33342, and camptothecin were evaluated in vitro and the analysis of the reaction products was visualized by the electrophoresis method. Supercoiled plasmid DNA (pHOT 1) was used as the control group. As another control group, plasmid DNA and topoisomerase I were used to ensure that the DNA became relaxed. Hoechst 33342, known as a topoisomerase poison, and camptothecin were used as positive controls.
Using agarose gel electrophoresis, the topoisomerase I inhibitory activities of the final compounds were assessed by measuring the relaxation of supercoiled plasmid DNA. A positive control, camptothecin, was used. A final volume of 20 μL reaction volume was used for the experiment, which contained 2 μL of 10× TGS buffer, […], 2 μL of supercoiled plasmid DNA, 2 μL of the test compound, 2 μL of Topo I, 2 μl of 10% SDS, 2 μL of proteinase K, and 2 μL of the DNA loading dye. Following a 30 min incubation period at 37 °C, the reaction mixtures were electrophoresed using 1× TAE buffer for 75 min at a potential of 50 V on a 1% agarose gel.[25]

Data set [3] concerns C6 (rat glioma cell line). The data set is described as follows: MTT cell viability assay, C6. The class given is cell-based. As for the experimental part:
(§1) The anticancer activity of compounds 4a–l were screened according to the MTT assays. The MTT assays were performed as previously described.[3] Anticancer activity of final compounds was assessed against […] A549 (lung carcinoma cell line) and C6 (rat glioma cell line) cell lines.
(In general: Tetrazolium assays rely on reduction of a dye to a coloured formazan, in cell work by metabolically active cells.)

Data set [4] concerns NIH3T3 (mouse embryo fibroblast cell line). The data set is described as follows: MTT cell viability assay, NIH3T3 healthy cells. The class given is cell-based.
The subject of data set [5] is A549 (lung carcinoma cell line). The data set is described as follows: MTT cell viability assay, A549. Conditions: Homo sapiens. Type of data set: cell-based. The protocol: as §1

Read-outs that look alike come from different tables or passages of the source. Where only a bound is given, the exact number is not on record here.

The IC50 is the point on the concentration scale where inhibition reaches its midpoint. As to `CN[C@@H]1C[C@H]2O[C@@](C)([C@@H]1OC)n1c3ccccc3c3c4c(c5c6ccccc6n2c5c31)C(=O)NC4` [staurosporine], the IC50 in data set [1] is 4.64 µM.
Broadly, the melting point is the temperature, or range, at which the solid turns liquid. `CCn1c(SCC(=O)N2CCN(c3ncccn3)CC2)nnc1-c1ccc2nc(-c3ccc(OC)cc3)[nH]c2c1` [4h, 2-((4-Ethyl-5-(2-(4-methoxyphenyl)-1H-benzo[d]imidazol-6-yl)-4H-1,2,4-triazol-3-yl)thio)-1-(4-(2-pyrimidinyl)piperazin-1-yl)ethanone] returned a melting point of 190.5 °C. Further, the “Topoisomerase I inhibitory effect (gel electrophoresis)” value (from here on “Topoisomerase I inhibitory effect”) in data set [2] was “significant inhibitory activity”. The compound also returned an IC50 in data set [3] of 13.2 ± 0.46 µM. Half-maximal inhibition in data set [4] (IC50) was put at 74.4 ± 2.68 µM. This compound showed an IC50 in data set [5] of 4.56 ± 0.18 µM.
Take `CCOc1ccc(-c2nc3ccc(-c4nc5cc(N6CCN(C)CC6)ccc5[nH]4)cc3[nH]2)cc1` [Hoechst 33342, reference compound]: the “Topoisomerase I inhibitory effect” value in data set [2] is on record as “strong inhibitory effect as a topoisomerase poison”. For the same compound, the IC50 in data set [3] worked out at 1.05 ± 0.3 µM; in data set [4], 13 ± 0.598 µM; in data set [5], 0.422 ± 0.02 µM.
Consider `CCOc1ccc(-c2nc3ccc(-c4nnc(SCC(=O)N5CCN(c6ncccn6)CC5)n4CC)cc3[nH]2)cc1` [4l, 2-((4-Ethyl-5-(2-(4-ethoxyphenyl)-1H-benzo[d]imidazol-6-yl)-4H-1,2,4-triazol-3-yl)thio)-1-(4-(2-pyrimidinyl)piperazin-1-yl)ethanone], for which the melting point turned out to be 140.8 °C. Besides, in data set [3], the IC50 came out at 38.8 ± 1.82 µM. Further, in data set [4], it took 35.7 ± 1.11 µM to reach half-maximal inhibition (IC50). Moreover, in data set [5], the IC50 worked out at 12.4 ± 0.54 µM.
`COc1cccc2c1C(=O)c1c(O)c3c(c(O)c1C2=O)C[C@@](O)(C(=O)CO)C[C@@H]3O[C@H]1C[C@H](N)[C@H](O)[C@H](C)O1` [doxorubicin, reference compound] returned a 50% inhibitory concentration (IC50) in data set [4] (NIH3T3, heading: IC50 NIH3T3) of 1.06 ± 0.00917 µM.
`CCN1CCN(C(=O)CSc2nnc(-c3ccc4nc(-c5ccc(OC)cc5)[nH]c4c3)n2CC)CC1` [4e, 2-((4-Ethyl-5-(2-(4-methoxyphenyl)-1H-benzo[d]imidazol-6-yl)-4H-1,2,4-triazol-3-yl)thio)-1-(4-ethylpiperazin-1-yl)ethanone]: the melting point is 112.7 °C. Further, the IC50 in data set [3] was > 100 µM. The compound also came in with an IC50 in data set [4] of 77.7 ± 2.47 µM. In addition, the IC50 in data set [5] came out at 75.7 ± 2.55 µM.
Consider `CCn1c(SCC(=O)N2CCN(c3ccccn3)CC2)nnc1-c1ccc2nc(-c3ccc(OC)cc3)[nH]c2c1` [4g, 2-((4-Ethyl-5-(2-(4-methoxyphenyl)-1H-benzo[d]imidazol-6-yl)-4H-1,2,4-triazol-3-yl)thio)-1-(4-(2-pyridinyl)piperazin-1-yl)ethanone], for which the melting point was 204.3 °C. Besides, the IC50 in data set [3] is > 100 µM. In data set [4], this compound gave an IC50 of 85.9 ± 2.92 µM. In addition, the IC50 in data set [5] came out at 87.2 ± 3.97 µM.
Taken in the same sequence, the figures for `CCN1CCN(C(=O)CSc2nnc(-c3ccc4nc(-c5ccc(O)cc5)[nH]c4c3)n2CC)CC1` [4a, 2-((4-Ethyl-5-(2-(4-hydroxyphenyl)-1H-benzo[d]imidazol-6-yl)-4H-1,2,4-triazol-3-yl)thio)-1-(4-ethylpiperazin-1-yl)ethanone] were 223.5 °C, > 100 µM, 64.8 ± 1.96 µM and 21.8 ± 1.04 µM.
`CCOc1ccc(-c2nc3ccc(-c4nnc(SCC(=O)N5CCN(CC)CC5)n4CC)cc3[nH]2)cc1` [4i, 2-((4-Ethyl-5-(2-(4-ethoxyphenyl)-1H-benzo[d]imidazol-6-yl)-4H-1,2,4-triazol-3-yl)thio)-1-(4-ethylpiperazin-1-yl)ethanone] showed a melting point of 144.3 °C. Moreover, in data set [3], the IC50 was found to be 39.4 ± 2.58 µM. This compound also yielded an IC50 in data set [4] of 30.6 ± 1.08 µM. In data set [5], this compound returned an IC50 of 33 ± 1.42 µM.
`CCn1c(SCC(=O)N2CCN(c3ccccc3)CC2)nnc1-c1ccc2nc(-c3ccc(O)cc3)[nH]c2c1` [4b, 2-((4-Ethyl-5-(2-(4-hydroxyphenyl)-1H-benzo[d]imidazol-6-yl)-4H-1,2,4-triazol-3-yl)thio)-1-(4-phenylpiperazin-1-yl)ethanone]: the melting point came out at 319 °C. The “Topoisomerase I inhibitory effect” value in data set [2] is given as “significant inhibitory activity”. Further, the IC50 in data set [3] worked out at 42.1 ± 2.1 µM. Further, the IC50 in data set [4] amounted to 56.7 ± 1.18 µM. The compound further gave an IC50 in data set [5] of 7.34 ± 0.21 µM.
Consider `CCn1c(SCC(=O)N2CCN(c3ccccc3)CC2)nnc1-c1ccc2nc(-c3ccc(OC)cc3)[nH]c2c1` [4f, 2-((4-Ethyl-5-(2-(4-methoxyphenyl)-1H-benzo[d]imidazol-6-yl)-4H-1,2,4-triazol-3-yl)thio)-1-(4-phenylpiperazin-1-yl)ethanone], for which the melting point amounted to 153.8 °C. The IC50 in data set [3] is > 100 µM. The compound also displayed an IC50 in data set [4] of 92.8 ± 3.06 µM. In data set [5], this compound gave an IC50 of 69.4 ± 3.04 µM.
On the same counts, the results for `CCOc1ccc(-c2nc3ccc(-c4nnc(SCC(=O)N5CCN(c6ccccn6)CC5)n4CC)cc3[nH]2)cc1` [4k, 2-((4-Ethyl-5-(2-(4-ethoxyphenyl)-1H-benzo[d]imidazol-6-yl)-4H-1,2,4-triazol-3-yl)thio)-1-(4-(2-pyridinyl)piperazin-1-yl)ethanone] are 162.2 °C, 64.6 ± 2.66 µM, 46.4 ± 1.21 µM and 24.9 ± 1.21 µM.
Regarding `CC[C@@]1(O)C(=O)OCc2c1cc1n(c2=O)Cc2cc3ccccc3nc2-1` [camptothecin, reference compound], in data set [2], the “Topoisomerase I inhibitory effect” value was “strong inhibitory effect as a topoisomerase poison”.
Regarding `CCn1c(SCC(=O)N2CCN(c3ncccn3)CC2)nnc1-c1ccc2nc(-c3ccc(O)cc3)[nH]c2c1` [4d, 2-((4-Ethyl-5-(2-(4-hydroxyphenyl)-1H-benzo[d]imidazol-6-yl)-4H-1,2,4-triazol-3-yl)thio)-1-(4-(2-pyrimidinyl)piperazin-1-yl)ethanone], the melting point came out at 144 °C. Further, the IC50 in data set [3] is > 100 µM. In data set [4], this compound yielded a concentration for half-maximal inhibition (IC50) of 80.5 ± 2.76 µM. Also, in data set [5], the IC50 is 54.4 ± 1.84 µM.
The compound `CCn1c(SCC(=O)N2CCN(c3ccccn3)CC2)nnc1-c1ccc2nc(-c3ccc(O)cc3)[nH]c2c1` [4c, 2-((4-Ethyl-5-(2-(4-hydroxyphenyl)-1H-benzo[d]imidazol-6-yl)-4H-1,2,4-triazol-3-yl)thio)-1-(4-(2-pyridinyl)piperazin-1-yl)ethanone] gave a melting point of 312.4 °C. Besides, the IC50 in data set [3] was determined as 24 ± 2.4 µM. In data set [4], this compound returned an IC50 of 32.2 ± 0.74 µM. In data set [5], this compound yielded an IC50 of 15.8 ± 0.63 µM.
On to `CCOc1ccc(-c2nc3ccc(-c4nnc(SCC(=O)N5CCN(c6ccccc6)CC5)n4CC)cc3[nH]2)cc1` [4j, 2-((4-Ethyl-5-(2-(4-ethoxyphenyl)-1H-benzo[d]imidazol-6-yl)-4H-1,2,4-triazol-3-yl)thio)-1-(4-phenylpiperazin-1-yl)ethanone], for which the melting point worked out at 118.8 °C. Moreover, the IC50 in data set [3] is > 100 µM. Besides, the IC50 in data set [4] is 69.5 ± 2.85 µM. For the same compound, the IC50 in data set [5] is 54.1 ± 2.18 µM.

Source of the values: PMC10955584, “New Benzimidazole-Triazole Derivatives as Topoisomerase I Inhibitors: Design, Synthesis, Anticancer Screening, and Molecular Modeling Studies” (ACS Omega, 2024).
